Patent US10682366B2, “Method for enhancing immunity using ginsenoside F1 as an active ingredient” (INTELLIGENT SYNTHETIC BIOLOGY CENTER, priority 2016, dated 2020)

Experiments:
[1] = system: primary natural killer cells; assay: Cell-killing activity of primary natural killer cells (cytolysis of target cells); format: cell-based, human; details: for cytolysis of target cells: compared to DMSO-treated group
Excerpt: (§1) In detail, peripheral blood mononuclear cells (PBMCs) separated from the blood and purified natural killer cells were pretreated with ginsenoside F1 or Rg3, and then co-cultured with K562 cell or 721.221 cell which is an europium-labeled target cells. The natural killer cell and the target cell were mixed at a ratio of 5:1, 10:1, 20:1, and 40:1, followed by culture. Meanwhile, intensity of fluorescence emitted from the target cell is proportional to cell-killing activity of natural killer cell. Therefore, a culture medium was separated by centrifugation, and then fluorescence emitted by cell lysis of the target cell was measured by using a microplate reader.
Blood (50 ml) of a healthy donor was collected in a vacutainer cell preparation tube (BD Biosciences) containing sodium heparin. Thereafter, the blood was percoll-gradient centrifuged to recover a buffy coat which is a white thin layer consisted of platelets and white blood cells. Peripheral blood mononuclear cells obtained by washing this buffy coat with PBS were separated by using a human NK cell negative selection kit (Miltenyl Biotech). Part of the separated natural killer cells and a FACS buffer were mixed, and then purity of natural killer cells (CD3^−/CD16^+) and the number and ratio of CD56^dim/CD16^+, CD56^bright/CD16^−, and CD56^bright/CD16^+ were measured by using a FACS machine and fluorochrome-conjugated anti-CD3, anti-CD56, and […] antibodies. Natural killer cells with purity of 95% or more were used in experiments.
The primary natural killer cells separated by the method of Example 3-1 were used to examine whether ginsenoside F1 increases cell-killing activity of primary natural killer cells, in the same manner as in Example 2.

[2] = system: natural killer cell-sensitive RMA-S (MHC class I-) cells; assay: In vivo natural killer cell-based selective reduction of RMA-S (RMA-S/RMA target cell system); details: mice pretreated at 25 mg/kg; for removability (selective reduction rate of RMA-S): RMA-S/RMA mixture intraperitoneal, 8 hours later, FACS
Method: To evaluate effectiveness of in vivo cell-killing activity of ginsenoside F1, natural killer cell-sensitive RMA-S (MHC class I^−) and natural killer cell-resistant RMA (MHC class I^+) target cell systems were used.
In detail, mice were pretreated with ginsenoside F1 at a dose of 25 mg/kg. A mixture of RMA-S/RMA cells, each cell labeled with different fluorescence intensity, was administered into the mice via intraperitoneal injection. 8 hours later, a selective reduction rate of RMA-S by natural killer cells was analyzed by FACS.

[3] = system: peripheral blood mononuclear cells (PBMCs) and natural killer cells; assay: Degranulation activity of innate immune cells (CD107a expression by FACS); format: cell-based, human; details: cells pretreated with ginsenoside, co-cultured with K562 or 721.221 target cell; compared to DMSO (vehicle)-treated group
Method: Effect of ginsenoside F1 on degranulation activity of innate immune cells was measured by fluorescence activated cell sorter (FACS).
In detail, peripheral blood mononuclear cells (PBMCs) separated from the blood and purified natural killer cells were pretreated with ginsenoside, and then co-cultured with K562 cell or 721.221 cell which is a target cell of the above cells, respectively. Thereafter, the surfaces of the peripheral blood mononuclear cells and the natural killer cells were stained with fluorochrome-conjugated anti-CD3, anti-CD56, and anti-CD107a antibodies. Meanwhile, degranulation activity of peripheral blood mononuclear cells or natural killer cells is proportional to CD107a expression on cell surface, as shown in FIG. 1. Therefore, CD107a expression levels of the peripheral blood mononuclear cells and the natural killer cells were measured by a FACS machine.

[4] = system: natural killer cells co-cultured with K562 cell or 721.221 cell; assay: Cell-killing activity of natural killer cells (cytolysis of europium-labeled target cells); format: cell-based, human; details: pretreated NK cells; NK:target ratio 5:1, 10:1, 20:1, 40:1; K562 or 721.221; compared to DMSO-treated group
Method: In order to examine whether ginsenoside F1 increases cell-killing activity of natural killer cells, cytolysis of target cells was measured.
as §1

[5] = system: primary natural killer cells; assay: Calcium flux assay by confocal live cell imaging; format: cell-based, human; details: activated with NKG2D antibody and 2B4 antibody; compared to ginsenoside Rg1
Method: To investigate a natural killer cell-based immune enhancement mechanism of ginsenoside F1 calcium flux assay of individual cells was performed by live cell imaging using confocal microscopy.
In detail, primary natural killer cells were purified (>97%) by the method of Example 3-1, and then treated with ginsenoside F1 or Rg1. For 30 seconds, a basal calcium level was measured, and then natural killer cells were activated using a combination of NKG2D antibody and 2B4 antibody, followed by calcium flux assay by confocal live cell imaging.

[6] = system: primary natural killer cells; assay: Analysis of cell-killing factors (perforin, granzyme B) by quantitative RT-PCR; format: cell-based, human; details: 12 hours after treatment
Method: To investigate a cell-killing activation mechanism of natural killer cells by ginsenoside F1, primary natural killer cells purified by the method of Example 3-1 were treated with ginsenoside F1 or Rg1. 12 hours later, total RNA was isolated, and then expressions of perforin and granzyme B which are representative cell-killing factors of natural killer cells were analyzed by quantitative RT-PCR.
In detail, total RNA was isolated from natural killer cells using a TRIzol reagent, and cDNA was synthesized using primers of unknown sequences, which were manufactured by Toyobo, and reverse transcriptase. Thereafter, quantitative RT-PCR was performed using primers of the following Table 1 and SYBR PCR Master Mix (Toyobo).
PCR conditions are the same as in the following Table 2.

Row | Compound | cytolysis of target cells [1] | removability (selective reduction rate of RMA-S) [2] | CD107a expression [3] | cytolysis of target cells [4] | cytolysis of target cells compared to the ginsenoside Rg3 and Rg1-treated group [1] | calcium flux of natural killer cells [5] | expression level of granzyme B compared to ginsenoside Rg1-treated group [6] | expression level of perforin compared to ginsenoside Rg1-treated group [6] | expression level of granzyme B ([6]; compared to non-treated group) | expression level of perforin ([6]; compared to non-treated group) | RMA-S reduction effect relative to non-treated group ([2]; 8 hours) [times]
1 | CC(C)=CCC[C@](C)(O[C@@H]1O[C@H](CO)[C@@H](O)[C@H](O)[C@H]1O)[C@H]1CC[C@]2(C)[C@@H]1[C@H](O)C[C@@H]1[C@@]3(C)CC[C@H](O)C(C)(C)[C@@H]3[C@@H](O[C@@H]3O[C@H](CO)[C@@H](O)[C@H](O)[C@H]3O)C[C@]12C [ginsenoside Rg1, reference compound] | high cytolysis of target cells | about 52% |  |  |  |  |  |  |  |  | 
2 | CC(C)=CCC[C@](C)(O[C@@H]1O[C@H](CO)[C@@H](O)[C@H](O)[C@H]1O)[C@H]1CC[C@]2(C)[C@@H]1[C@H](O)C[C@@H]1[C@@]3(C)CC[C@H](O)C(C)(C)[C@@H]3[C@@H](O)C[C@]12C [ginsenoside F1] | high cytolysis of target cells | ≥ 70% | highest CD107a expression | high cytolysis of target cells | remarkably excellent cytolysis | more effectively promotes calcium flux | high expression level of granzyme B | high expression level of perforin | about 1.5 times | about 2 times | 2
3 | CC(C)=CCC[C@](C)(O)[C@H]1CC[C@]2(C)[C@@H]1[C@H](O)C[C@@H]1[C@@]3(C)CC[C@H](O[C@@H]4O[C@H](CO)[C@@H](O)[C@H](O)[C@H]4O[C@@H]4O[C@H](CO)[C@@H](O)[C@H](O)[C@H]4O)C(C)(C)[C@@H]3CC[C@]12C [ginsenoside Rg3, reference compound] | high cytolysis of target cells |  | increased | high cytolysis of target cells |  |  |  |  |  |  | 
